In the OPERA property sets (Mansouri et al. 2018):
Peptide text beside a SMILES is read from it.

In order of rising logP:
1. O=C(NCC(O)CO)c1c(I)c(C(=O)NCC(O)CO)c(I)c(N(CCO)C(=O)CO)c1I (centres undefined)  -2.98
2. CC(C)C[C@H](N)C(=O)O  -1.52
3. O=c1[nH]c(=O)n([C@H]2C[C@H](O)[C@@H](CO)O2)cc1F  -1.16
4. OCC(O)c1ccc(O)c(O)c1 (centres undefined)  -1.01
5. CNCCO  -0.94
6. NCc1ccncc1  -0.38
7. Cn1c(CO)cnc1[N+](=O)[O-]  -0.35
8. NC(=O)CCc1ccncc1  -0.25
9. CN(C)C(N(C)C)=S(I)c1cccc(Cl)c1 (centres undefined)  -0.17
10. C1COCCOCCOCCO1  -0.04
11. O=c1[nH]cc(C(F)(F)F)c(=O)[nH]1  0.04
12. CCOC(=O)[C@H](CCc1ccccc1)N[C@@H](C)C(=O)N1CCC[C@H]1C(=O)O  0.07
13. COC  0.1
14. NS(=O)(=O)c1cc2c(cc1Cl)NC(CCl)NS2(=O)=O (centres undefined)  0.11
15. Nc1cccnc1  0.11
16. CC[C@H](C)[C@H](NC(C)=O)C(=O)N[C@H](C(N)=O)C(C)C (Ac-Ile-Val-NH2)  0.16
17. c1cc2nc[nH]c2cn1  0.18
18. c1cn[nH]c1  0.26
19. CC1CC2OC(=O)C3(C)C2C(OC3(C)O)C2(C)C(=O)C=CC12 (centres undefined)  0.3
20. CC1(C)N=C(N)N=C(N)N1c1ccc(F)cc1  0.37
21. Nc1nccs1  0.38
22. O=Cc1ccco1  0.41
23. NC(=O)C1CCCN1C(=O)C(Cc1cn(C(=O)OC2CCCCC2)cn1)NC(=O)C1CCC(=O)N1 (centres undefined)  0.6
24. CCCCCCOC(=O)n1cnc(CC(NC(=O)C2CCC(=O)N2)C(=O)N2CCCC2C(N)=O)c1 (centres undefined)  0.71
25. CNC(=O)COc1ccccc1  1.02
26. Oc1ccc(Cn2cc[nH]c2=S)cc1F  1.12
27. CC(=O)c1cccc(C#N)c1  1.16
28. Cn1cccc1  1.21
29. OCCCCCc1ccccn1  1.28
30. CCCCCOC(N)=O  1.35
31. O=C(O)COc1cccc([N+](=O)[O-])c1  1.37
32. CC(=O)Nc1ccc(F)cc1  1.47
33. COc1ccc([N+](=O)[O-])cn1  1.55
34. CC(=O)C(=Cc1ccccc1)C(C)=O  1.59
35. CN(C)C(=O)OCc1ccc(OC(=O)N(C)C)cc1  1.59
36. Oc1ccccc1F  1.71
37. Cc1cccc(OCC(=O)O)c1  1.78
38. O=C(O)c1ccc([N+](=O)[O-])cc1  1.89
39. OCC=Cc1ccccc1  1.95
40. CN(C)Cc1ccccc1  1.98
41. CC(C)NNC(=O)COc1ccc(Cl)cc1  2.02
42. Cc1ccc(Cc2c[nH]c(NCCSCc3ccc(CN(C)C)o3)nc2=O)cn1  2.06
43. CC(=O)c1c[nH]c2ccccc12  2.06
44. OCc1cccc(C(F)(F)F)c1  2.24
45. CCCCOc1c(OC)cc(CCN)cc1OC  2.32
46. Cc1ccsc1  2.34
47. Clc1cccc2c1CCNCC2  2.4
48. O=C1OC2(CCCC2)c2ccccc21  2.56
49. Oc1cccc(Br)c1  2.63
50. O=C(O)COc1ccc2c(c1)CCCC2  2.67
51. CCCCc1c(C)nc(NCC)nc1OS(=O)(=O)N(C)C  2.7
52. COc1ccc(O)c2nccc(C)c12  2.75
53. O=P(c1ccccc1)(c1ccccc1)c1ccccc1  2.83
54. O=C(CN1CCCCC1)Nc1cccc(F)c1  2.85
55. CCCN1CCCC[C@H]1C(=O)Nc1c(C)cccc1C  2.9
56. CC(C)c1ccc(O)cc1  2.9
57. Oc1ccccc1C=Nc1ccccc1  3.09
58. CCCCNC1=CC(=O)c2ccccc2C1=O  3.11
59. CCCCCc1ccc(N)cc1  3.39
60. CCN(CC)C(=O)SCc1ccc(Cl)cc1  3.4
61. COP(=S)(OC)Oc1ccc([N+](=O)[O-])c(Cl)c1  3.45
62. Brc1ccccc1Br  3.64
63. CCOC(=O)C(SP(=S)(OC)OC)c1ccccc1 (centres undefined)  3.69
64. CCNc1nc(NC(C)C)nc(SC(F)F)n1  3.7
65. CCCC(=O)O[C@]1(C(=O)CCl)[C@@H](C)C[C@H]2[C@@H]3CCC4=CC(=O)C=C[C@]4(C)[C@@]3(F)C(=O)C[C@@]21C  3.76
66. O=C(O)C(c1ccc(-c2ccccc2)cc1)C(O)c1ccccc1F (centres undefined)  3.77
67. CCCCC(=O)O[C@]1(C(=O)CO)CC[C@H]2[C@@H]3CCC4=CC(=O)CC[C@]4(C)[C@H]3[C@@H](O)C[C@@]21C  3.79
68. Oc1c(Cl)c(Cl)cc(Cl)c1Cl  3.88
69. CCCC(=NOCC)C1C(=O)CC2(CCCCC2C)OC1=O (centres undefined)  3.9
70. c1cc2c3c(cccc3c1)CC2  3.92
71. CCC(=O)OCC(=O)[C@@]1(OC(=O)CC)[C@@H](C)C[C@H]2[C@@H]3CCC4=CC(=O)C=C[C@]4(C)[C@@]3(F)[C@@H](O)C[C@@]21C  4.07
72. CCCC(=NOCC)C1C(=O)CC2(CC(C)CC(C)C2)OC1=O (centres undefined)  4.48
73. COC(=O)c1cc(Oc2ccc(Cl)cc2Cl)ccc1[N+](=O)[O-]  4.48
74. c1ccc(-c2cnc(-c3ccccc3)o2)cc1  4.67
75. C=CCC1=C(C)C(OC(=O)C2C(C=C(C)C)C2(C)C)CC1=O (centres undefined)  4.78
76. ClC(Cl)=C(Cl)C(Cl)=C(Cl)Cl  4.78
77. Clc1ccc(-c2cc3ccccn3c2)cc1  5.2
78. Clc1ccccc1-c1c(Cl)cccc1Cl  5.48
79. CC(C)c1cc(Oc2ccccc2)cc(C(C)C)c1NC(=S)NC(C)(C)C  6
